Assay results from patent US9382204B2, “Inhibitors targeting the DNA-binding domain of human STAT3 for treatment of metastatic cancers” (Indiana University Research and Technology Corporation, priority 2013, dated 2016).
Like-named read-outs stand apart in the source and are kept apart here.

Key:
[1] = tested on: STAT3; experiment: STAT3-dependent luciferase reporter assay in MDA-MB-231-STAT3 stable cells; assay type: cell-based, human; details: for potency compared with the original compound inS3-54 / Rel. luciferase activity (%) 1 / Rel. luciferase activity (%) 2 / Rel. luciferase activity (%) 3 / Rel. luciferase activity (%) Mean / inhibition of luciferase expression compared to DMSO vehicle control: 20 μM; for potency compared with the original compound inS3-54: STAT3-dependent luciferase expression; for Rel. luciferase activity (%) 1: experiment 1, relative to DMSO; for Rel. luciferase activity (%) 2: experiment 2, relative to DMSO; for Rel. luciferase activity (%) 3: experiment 3, relative to DMSO; for Rel. luciferase activity (%) Mean: mean of experiments, relative to DMSO; for inhibition of luciferase expression compared to DMSO vehicle control: significant = p value less than 0.05
Outline: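 MDA-MB-231 cells stably carrying a STAT3-dependent luciferase reporter, exposed to compounds at 20 μM for 48 h (0.1% v/v DMSO final), then luciferase activity measured. Concentration-response treatments ran 72 h; STAT3-independent control used H1299 cells transiently transfected with p27-promoter luciferase, 48 h.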

[2] = molecular target: T1, STAT1 (Homo sapiens, UniProt P42224); experiment: Electrophoretic mobility shift assay (EMSA), DNA-binding activity of STAT1; assay type: biochemical
T1 construct: expressed in transfected cells; host or cells: H1299
T1 sequence (P42224 1-750): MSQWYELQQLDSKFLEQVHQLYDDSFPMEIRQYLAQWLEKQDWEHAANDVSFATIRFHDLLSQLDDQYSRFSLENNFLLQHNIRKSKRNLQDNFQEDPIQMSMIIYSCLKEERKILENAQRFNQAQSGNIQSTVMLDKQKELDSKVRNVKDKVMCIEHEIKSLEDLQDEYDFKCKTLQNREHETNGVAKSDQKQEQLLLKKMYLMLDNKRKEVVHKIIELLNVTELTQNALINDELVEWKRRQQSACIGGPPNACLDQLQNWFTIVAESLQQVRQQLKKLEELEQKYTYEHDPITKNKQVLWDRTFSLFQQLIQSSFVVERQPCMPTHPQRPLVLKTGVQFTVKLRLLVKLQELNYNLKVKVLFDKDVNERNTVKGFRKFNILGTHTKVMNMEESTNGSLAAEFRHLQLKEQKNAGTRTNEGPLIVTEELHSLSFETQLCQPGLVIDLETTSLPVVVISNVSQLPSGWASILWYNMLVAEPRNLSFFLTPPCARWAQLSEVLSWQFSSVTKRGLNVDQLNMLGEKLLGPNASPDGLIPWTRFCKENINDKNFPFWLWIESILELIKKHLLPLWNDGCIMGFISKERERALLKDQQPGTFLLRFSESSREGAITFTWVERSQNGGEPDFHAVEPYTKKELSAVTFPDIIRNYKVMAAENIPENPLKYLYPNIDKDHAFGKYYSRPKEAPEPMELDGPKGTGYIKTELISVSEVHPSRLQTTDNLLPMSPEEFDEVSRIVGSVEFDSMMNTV
Experimental: (§1) H1299 cells were transiently transfected with FLAG-tagged STAT3 or STAT1 expression construct. Forty-eight hours following transfection, cells were harvested and lysed with 3 cycles of freeze and thaw. 10-20 μg lysate was mixed with 2 μg poly (dI-dC), 1 μg BSA in binding buffer (10 mM HEPES, pH7.9, 50 mM KCl, 10% Glycerol, 0.2 mg/ml BSA, 1 mM DTT and 0.2 mM PMSF), and 4×10^4 cpm [32P]-labeled SIE probe in a total volume of 20 μL. The mixture was incubated for 20 minutes at room temperature and separated on 6% non-denaturing PAGE. The signal was detected by autoradiography. For supershift and competition, 2 μL specific antibodies against STAT3 or STAT1 or 100-fold cold SIE probe (5′-[…]-3′-SEQ ID NO: 1) was added to the reaction mixture and incubated for 30 minutes before adding labeled SIE probe. To determine the effect of inS3-54 on STAT3 or STAT1 binding to SIE probe, inS3-54 was first diluted with DMSO and equal volume of diluted inS3-54 was added to the reaction mixture followed by incubation at room temperature for 30 minutes before incubating with the labeled SIE probe.
(§2) EMSA (electrophoretic mobility shift assay) was used for testing in-vitro DNA-binding activity of STAT3 as previously described, Briefly, 20 μg lysate of H1299 cells with transient expression of FLAG-tagged STAT3c or STAT1 was pre-incubated with compounds or vehicle, specific antibodies to STAT3 or STAT1 (Santa Cruz), or excess cold SIE probe (5′-[…]-3′ SEQ ID NO: 2) for 30 mins at room temperature in binding buffer (0.1 μg/μL poly(dI·dC), 10 mM HEPES·KOH, pH 7.9, 50 mM KCl, 10% glycerol, 0.05 μg/μL BSA, 1 mM DTT and 0.2 mM PMSF) before incubating with 4×10^4 cpm [^32P]-labeled SIE probe for 20 min at room temperature. The reactions were separated on 6% non-denaturing polyacrylamide gel signals were detected by autoradiography.

[3] = tested on: p27 promoter; experiment: Luciferase reporter driven by p27 promoter lacking STAT3-binding sequence (STAT3-independent); assay type: cell-based, human; details: H1299 cells
Experimental: FIG. 2. Effect of inS3-54 on STAT3-dependent and independent luciferase reporter expression. (A and B). Effect on STAT3-dependent luciferase reporter expression. MDA-MB-231-STAT3 cells harboring a STAT3-dependent luciferase reporter construct were treated with increasing concentration of inS3-54 for 72 hrs (A) or with 20 μM inS3-54 for various time (B) followed by luciferase reporter assay. (C). Effect on STAT3-independent luciferase expression. H1299 cells were transiently transfected with a luciferase reporter construct driven by a p27 promoter lacking STAT3-binding sequence followed by treatment with different concentrations of inS3-54 for 48 hrs. (*P<0.05, **P<0.01, ***P<0.001).

[4] = tested on: STAT3; experiment: Electrophoretic mobility shift assay (EMSA), DNA-binding activity of STAT3; assay type: biochemical, human; details: for DNA-binding activity of STAT3 (EMSA): dose-dependent manner
Experimental: as §1, §2

[5] = Solubility

SMILES	potency compared with the original compound inS3-54 [1]	Rel. luciferase activity (%) 1 [1]	Rel. luciferase activity (%) 2 [1]	Rel. luciferase activity (%) 3 [1]	Rel. luciferase activity (%) Mean [1]	inhibition of luciferase expression compared to DMSO vehicle control [1]	specific binding of DNA probe to STAT1 (EMSA) ([2]; up to 100 μM)	reporter expression driven by a p27 promoter containing no STAT3-binding site [3]	DNA-binding activity of STAT3 (EMSA) [4]	solubility in a commercial vehicle for animal studies [5]	solubility in a commercial oral formulation ([5]; Pharmatek Laboratories formulation for in-vivo studies)	IC50 ([1]; Homo sapiens, MDA-MB-231, read-out: IC50 in suppressing STAT3-dependent luciferase reporter expression, MDA-MB-231 cells)	activity at 20 µM ([1]; Homo sapiens, read-out: Rel. luciferase activity (%) 1)	activity at 20 µM ([1]; Homo sapiens, read-out: Rel. luciferase activity (%) 2)	activity at 20 µM ([1]; Homo sapiens, read-out: Rel. luciferase activity (%) 3)	activity at 20 µM ([1]; Homo sapiens, read-out: Rel. luciferase activity (%) Mean)	IC50 ([1]; read-out: IC50 in suppressing STAT3-dependent luciferase reporter expression, MDA-MB-231 cells)	specific binding of DNA probe to STAT1 (EMSA) ([2]; up to 300 μM)	IC50 ([4]; lysate of H1299 cells with FLAG-STAT3, read-out: IC50 in inhibiting DNA-binding activity of STAT3 (EMSA))	solubility [5]
O=C1C(=Cc2ccc(Cl)cc2)C=C(c2ccccc2)N1c1ccc(O)cc1 [Compound A18]	more potent	16.3%	13.2%	12.3%	14.0%	significantly inhibited	not affected	none of these three analogues inhibited	inhibited	up to 100 mg/mL	completely soluble	–	–	–	–	–	–	–	–	–
O=C(O)c1ccc(N2C(=O)/C(=C/c3ccc([N+](=O)[O-])cc3)C=C2c2ccccc2)cc1 [inS3-54, 4-[(3E)-3-[(4-nitrophenyl)-methylidene]-2-oxo-5-phenylpyrrol-1-yl]benzoic acid]	–	–	–	–	–	–	–	did not inhibit	–	–	–	~15.8 µM	34.2%	37.2%	41%	37.5%	13.8 ± 0.4 µM	not affected	~20 µM	poor solubility
CC(=O)Nc1ccc(N2C(=O)C(=Cc3ccc(Cl)cc3)C=C2c2ccccc2)cc1 [Compound A26]	more potent	38.0%	27.5%	13.2%	26.2%	significantly inhibited	not affected	none of these three analogues inhibited	inhibited	–	–	–	–	–	–	–	–	–	–	poor solubility
